Measured values from patent US11964971B2, “Methods and compositions for modulating splicing” (Skyhawk Therapeutics, Inc., priority 2019, dated 2024).

Assays:
[1] = test system: MDR1-MDCK cell monolayers; conditions: dog, MDCK-MDR1, 120 min, 5 μM, pH 7.4
SMN FL and SMN Δ7 = assay: Quantitative splicing assay (SMN) in SMA patient fibroblasts (GM03813); assay type: cell-based; conditions: Homo sapiens, Fibroblast; class symbol; read-out: SMN2 Splicing FL EC50 (nM)*
Description: Spinal muscular atrophy (SMA) patient fibroblasts (GM03813, Coriell) are plated in 96-well plates at 50,000 cells/well. […] Treated cells are lysed and cDNA synthesized using the Fast Advanced Cells-to-Ct kit (Thermofisher A35378) according to the manufacturer's instructions. 2 μL of each cDNA are used in qPCR reactions. […] Reactions are run in a Quant Studio 6 qPCR instrument with default settings.

SMN protein = SMN protein assay (MSD) in SMA patient fibroblasts (GM03813); assay type: cell-based, human
Outline: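 Absolute SMN protein measured by Mesoscale Discovery assay in lysates, calibrated per plate with SMN standards (1–19.5 μg/ml). Cells: GM03813 SMA fibroblasts, 7000/well, 48 h compound exposure at doses of 2.5 μM down to 0.6 nM.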

MDR1 (P-gp) = assay: MDCK-MDR1 permeability assay, blood-brain-barrier penetration potential; conditions: dog, MDCK-MDR1, pH 7.4, MDCK-MDR1 Efflux Ratio
MDR1 = assay: in vitro; conditions: dog; for Papp A→B at 120 min, 5 μM: MDCK-MDR1, pH 7.4, MDCK-MDR1: Papp A-B (10^−6, cm/s); for Papp B→A at 120 min, 5 μM: MDCK-MDR1, pH 7.4, MDCK-MDR1: Papp B-A (10^−6, cm/s)

SMILES	MDCK-MDR1: % Recov A-B (%) [1] [%]	MDCK-MDR1: % Recov B-A (%) [1] [%]	EC50 (SMN FL and SMN Δ7) [nM]	EC50 (SMN protein) [nM]	efflux ratio at 120 min, 5 μM (MDR1 (P-gp))	Papp A→B at 120 min, 5 μM (MDR1) [×10⁻⁶ cm/s]	Papp B→A at 120 min, 5 μM (MDR1) [×10⁻⁶ cm/s]
CN(c1cnc(-c2ccc(-c3cn[nH]c3)cc2O)cn1)[C@H]1C[C@@H]2CCC(N2)[C@@H]1F (single isomer, unassigned) [Compound 27E2]	80	85	101 to 500	16 to 50	9	4.45	40.6
COc1cc(-c2ccc(-c3cnc(N(C)[C@H]4C[C@@H]5COCC(N5)[C@H]4F)cn3)c(O)c2)cnn1 (single isomer, unassigned) [Compound 74E2]	92	104	501 to 10000	501 to 10000	18	3.6	63.2
CN(c1cnc(-c2ccc(-c3cc[nH]c(=O)c3)cc2O)cn1)[C@H]1C[C@@H]2CC[C@@H](N2)[C@H]1F [Compound 76E2, 4-(4-(5-(((1R,2R,3S,5S)-2-fluoro-8-azabicyclo[3.2.1]octan-3-yl)(methyl)amino)pyrazin-2-yl)-3-hydroxyphenyl)pyridin-2(1H)-one]	93	75	101 to 500	16 to 50	78	0.37	28.9
CN(c1cnc(-c2cc(F)c(-c3cnn(C)c3)cc2O)cn1)[C@H]1C[C@]2(C)CC[C@@](C)(N2)[C@H]1F [Compound 58E2, 4-fluoro-2-(5-(((1R,2S,3S,5S)-2-fluoro-1,5-dimethyl-8-azabicyclo[3.2.1]octan-3-yl)(methyl)amino)pyrazin-2-yl)-5-(1-methyl-1H-pyrazol-4-yl)phenol]	32	69	101 to 500	0.01 to 15	3	5.98	16.4
CN(c1cnc(-c2cc(F)c(-c3ccn(C)c(=O)c3)cc2O)cn1)[C@H]1C[C@@H]2CCCC(N2)[C@H]1F (single isomer, unassigned) [Compound 12E2]	72	88	501 to 10000	16 to 50	27	2.14	57.4
CN(c1cnc(-c2ccc(-c3cnn(C)c3)cc2O)cn1)[C@@H]1C[C@H]2CCC(N2)[C@@H]1F (single isomer, unassigned) [Compound 3E1]	56	66	101 to 500	16 to 50	3	8.42	22
CN(c1cnc(-c2cc(F)c(-c3cn[nH]c3)cc2O)cn1)[C@H]1C[C@@H]2CCC(N2)[C@H]1F (single isomer, unassigned) [Compound 40E2]	59	72	16 to 50	0.01 to 15	5	7.33	37.1
CN(c1cnc(-c2ccc(-c3cnn(C)c3)cc2O)cn1)[C@@H]1CC2CC[C@H](N2)[C@@H]1F (single isomer, unassigned) [Compound 16E1]	45	79	501 to 10000	16 to 50	4	5.62	20.6
COc1cc(-c2ccc(-c3cnc(N(C)[C@@H]4CC5N[C@H](C4)CC5(F)F)cn3)c(O)c2)cnn1 (single isomer, unassigned) [Compound 68E1]	63	86	–	501 to 10000	5	9.35	43
CN(c1cnc(-c2cc(F)c(-c3cnn(C)c3)cc2O)cn1)[C@@H]1C[C@@]2(C)CC[C@](C)(N2)[C@@H]1F [Compound 58E1, 4-fluoro-2-(5-(((1S,2R,3R,5R)-2-fluoro-1,5-dimethyl-8-azabicyclo[3.2.1]octan-3-yl)(methyl)amino)pyrazin-2-yl)-5-(1-methyl-1H-pyrazol-4-yl)phenol]	37	64	–	101 to 500	3	7.67	22.1
COc1cc(-c2ccc(-c3cnc(N(C4CC4)[C@H]4C[C@@H]5CCC(N5)[C@H]4F)cn3)c(O)c2)ccn1 (single isomer, unassigned) [Compound 51E2]	11	34	–	501 to 10000	2	1.27	2.99
CN(c1cnc(-c2cc3ccc(OCF)nc3cc2O)cn1)[C@H]1C[C@@H]2CCC(N2)[C@H]1F (single isomer, unassigned) [Compound 19E2]	28	62	–	501 to 10000	6	2.81	17.1
CNC(=O)/C=C/c1cc(O)c(-c2cnc(N(C)[C@@H]3CC4CC[C@H](N4)[C@@H]3F)cn2)cc1F (single isomer, unassigned) [Compound 60E1]	93	88	–	51 to 100	30	1.71	51.3
CNC(=O)c1cc(O)c(-c2cnc(N(C)[C@@H]3CC4CC[C@H](N4)[C@@H]3F)cn2)cc1F (single isomer, unassigned) [Compound 15E1]	86	97	–	501 to 10000	24	2.74	64.4
COc1cc(-c2ccc(-c3cnc(N(C4CC4)[C@H]4C[C@@H]5CCC(N5)[C@H]4F)cn3)c(O)c2)ncn1 (single isomer, unassigned) [Compound 56E2]	14	48	–	101 to 500	2	2.12	4.55
COc1cc(-c2cc(O)c(-c3cnc(N(C)[C@H]4C[C@@H]5CCC(N5)[C@H]4F)cn3)cc2F)cc(F)n1 (single isomer, unassigned) [Compound 31E2]	59	67	–	16 to 50	2	0.33	0.5
Oc1cc(-c2cn[nH]c2)c(F)cc1-c1cnc(N(C2CC2)[C@H]2C[C@@H]3CCC(N3)[C@H]2F)cn1 (single isomer, unassigned) [Compound 41E2]	54	72	–	101 to 500	6	6.09	34.4
COc1cc(-c2cc(O)c(-c3cnc(N(C)[C@@H]4CC5CC[C@H](N5)[C@@H]4F)cn3)cc2F)cc(F)n1 (single isomer, unassigned) [Compound 31E1]	58	65	–	501 to 10000	2	0.48	0.8
CN(c1cnc(-c2ccc(-c3cc(=O)n(C)cn3)cc2O)cn1)[C@H]1C[C@@H]2CCC(N2)[C@H]1F (single isomer, unassigned) [Compound 47E2]	84	90	–	51 to 100	15	3.35	51.1
CN(c1cnc(-c2ccc(C3=CCOC3)cc2O)cn1)[C@@H]1CC2CC[C@H](N2)[C@@H]1F (single isomer, unassigned) [Compound 84E1]	26	59	–	501 to 10000	3	3.01	7.82
Cc1nc(-c2ccc(-c3cnc(N(C)[C@H]4C[C@@H]5CCC(N5)[C@H]4F)cn3)c(O)c2)no1 (single isomer, unassigned) [Compound 69E2]	47	62	–	101 to 500	2	9.26	20.3
CN(c1cnc(-c2ccc(-c3cn[nH]c3)cc2O)cn1)[C@H]1CC2N[C@@H](C1)CC2(F)F (single isomer, unassigned) [Compound 9E1]	60	77	–	501 to 10000	3	17.9	51.6
